The structures appear in SMILES notation. “And” between values parts separate entries of the source, which are not always exact repeats. Equal values may be shown once.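 Protocol summary: plate cells (96-well), add compound at 5 concentrations, incubate 48 h, interpolate endpoints linearly. GI50 = concentration required for 50% inhibition of growth. TGI: total growth inhibition.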

Our source for the TGI and GI50 values is PubChem BioAssay (NCI).

Some test systems named below: HOP-62 NSCLC; KM12 colon; DMS 114 small cell lung; IGROV1 ovarian; XF 498 CNS; M19-MEL melanoma; SK-MEL-5 melanoma; OVCAR-8 ovarian; DMS 273 small cell lung; UO-31 renal; U251 CNS; T-47D breast.
Common to all, as to experiment: DTP human tumour cell line panel, 48 h

Consider `O=S(=O)(O)c1ccc([Se][Se]c2ccc(S(=O)(=O)O)cc2)cc1`, for which the concentration for total growth inhibition (TGI) in the test on HOP-62 NSCLC, in the test with KM12 colon, with DMS 114 small cell lung, with IGROV1 ovarian, in the test on XF 498 CNS and in the test on M19-MEL melanoma was greater than 100 µM throughout. Further, the concentration for total growth inhibition (TGI) in the test with SK-MEL-5 melanoma, in the test on OVCAR-8 ovarian, with DMS 273 small cell lung, in the test with UO-31 renal and with U251 CNS was greater than 100 µM in each case.

On to `O=Cc1cc2sc(C=O)cc2s1`, for which the TGI in the test with HOP-62 NSCLC, in the test on KM12 colon, in the test with DMS 114 small cell lung, in the test on IGROV1 ovarian, in the test with XF 498 CNS and with M19-MEL melanoma was greater than 100 µM in each case. Further, the TGI in the test with SK-MEL-5 melanoma, in the test with OVCAR-8 ovarian, with DMS 273 small cell lung, with UO-31 renal and with U251 CNS was greater than 100 µM each time.

As to `COc1ccc(-c2oc(C=Nc3ccccc3)c([N+](=O)[O-])c2-c2ccc(OC)c(OC)c2)cc1OC`, the total growth inhibition concentration (TGI) in the test on HOP-62 NSCLC, in the test on KM12 colon, in the test on DMS 114 small cell lung, with IGROV1 ovarian, in the test on XF 498 CNS and in the test with M19-MEL melanoma was greater than 100 µM each time. For the same compound, the TGI in the test on SK-MEL-5 melanoma, in the test with OVCAR-8 ovarian, with DMS 273 small cell lung, in the test with UO-31 renal and in the test with U251 CNS was greater than 100 µM each time.

As to `OC(CBr)C(O)C(O)C(O)CBr` (stereo not drawn), the TGI in the test on HOP-62 NSCLC, in the test on KM12 colon, in the test on DMS 114 small cell lung, in the test with IGROV1 ovarian, in the test on XF 498 CNS and in the test with M19-MEL melanoma was greater than 100 µM throughout. Besides, the TGI in the test with SK-MEL-5 melanoma, with OVCAR-8 ovarian, with T-47D breast, in the test on DMS 273 small cell lung, in the test with UO-31 renal and in the test on U251 CNS was greater than 100 µM in each case. The GI50 (in general, the concentration at which growth is held to half of that of the control) was 49.4 µM and > 100 µM in the test with IGROV1 ovarian; greater than 100 µM with SK-MEL-5 melanoma; greater than 100 µM in the test with UO-31 renal.

Regarding `O=C(C#Cc1ccccc1)Nc1ccccc1CC(c1c[nH]c2ccccc12)c1c[nH]c2ccccc12`, the TGI (in general, the concentration at which net growth stops) in the test on HOP-62 NSCLC is greater than 100 µM; in the test on KM12 colon, 44.4 µM; with IGROV1 ovarian it was 98.8 µM; in the test with XF 498 CNS it was 70 µM; in the test on M19-MEL melanoma, 47.8 µM; in the test with SK-MEL-5 melanoma it was 31.8 µM. Further, the total growth inhibition concentration (TGI) was 39.7 µM with OVCAR-8 ovarian, 38.8 µM in the test with DMS 273 small cell lung and greater than 100 µM in the test on UO-31 renal.

With `C/C(COc1ccccc1)=N\NC(N)=S`, the concentration for total growth inhibition (TGI) in the test with HOP-62 NSCLC, in the test with KM12 colon, in the test on DMS 114 small cell lung, in the test with IGROV1 ovarian, in the test with XF 498 CNS and with M19-MEL melanoma was greater than 100 µM each time. For the same compound, the concentration for total growth inhibition (TGI) with SK-MEL-5 melanoma, with OVCAR-8 ovarian, in the test with DMS 273 small cell lung, in the test on UO-31 renal and with U251 CNS was greater than 100 µM throughout.

For the compound `Cc1cc(NCCCCCCCCNc2cc(C)nc3cc(N(C)C)ccc23)c2ccc(N(C)C)cc2n1`, the TGI was 29 µM in the test with HOP-62 NSCLC; 19.6 µM in the test on KM12 colon; 6.63 µM with DMS 114 small cell lung; 7.3 µM in the test on XF 498 CNS; 10.8 µM in the test with M19-MEL melanoma; 38.2 µM in the test on OVCAR-8 ovarian. The TGI in the test on DMS 273 small cell lung was 16.5 µM; in the test on UO-31 renal, greater than 100 µM; with U251 CNS, 9.45 µM.

As for `CCOC1=C2N=C(C(CC)c3ccc(F)cc3)N=C2C(=O)c2ccccc21` (stereo not drawn), the TGI with HOP-62 NSCLC was greater than 100 µM; with KM12 colon, greater than 56.5 µM; in the test on DMS 114 small cell lung, greater than 68.4 µM; in the test with IGROV1 ovarian, greater than 100 µM; in the test on XF 498 CNS it was 40.1 µM; with M19-MEL melanoma, greater than 59.4 µM. Moreover, the TGI with SK-MEL-5 melanoma was 26.9 µM; with OVCAR-8 ovarian it was greater than 100 µM; with DMS 273 small cell lung it was greater than 72.1 µM; in the test with UO-31 renal, 55.5 µM; in the test on U251 CNS, 53.5 µM.

Turning to `CC1O[C@@H]2CCCCC(=O)[C@]2(C)[C@H]1C` (stereo partly drawn), the TGI with HOP-62 NSCLC, in the test with KM12 colon, in the test with DMS 114 small cell lung, in the test on IGROV1 ovarian, with XF 498 CNS and in the test on M19-MEL melanoma was greater than 100 µM throughout. For the same compound, the total growth inhibition concentration (TGI) in the test on SK-MEL-5 melanoma, with OVCAR-8 ovarian, with DMS 273 small cell lung, in the test on UO-31 renal and in the test on U251 CNS was greater than 100 µM each time.

For `CCC(/C(=N/NC(=O)C[N+](C)(C)C)c1ccccc1)C1OC(=O)c2ccccc21` (stereo not drawn), the TGI in the test with HOP-62 NSCLC, with KM12 colon, with DMS 114 small cell lung, in the test on IGROV1 ovarian, in the test with XF 498 CNS and in the test on M19-MEL melanoma was greater than 100 µM throughout. For the same compound, the concentration for total growth inhibition (TGI) in the test on SK-MEL-5 melanoma, with OVCAR-8 ovarian, with DMS 273 small cell lung, in the test with UO-31 renal and with U251 CNS was greater than 100 µM in each case.

Take `CC(C)(C)c1cc([Si](C)(C)C)c(C#N)c([Si](C)(C)C)c1`: the total growth inhibition concentration (TGI) is greater than 100 µM in the test on HOP-62 NSCLC; greater than 100 µM with KM12 colon; greater than 100 µM in the test on DMS 114 small cell lung; greater than 100 µM in the test on IGROV1 ovarian; 67 µM in the test with XF 498 CNS; greater than 100 µM in the test on M19-MEL melanoma. Further, the TGI in the test on OVCAR-8 ovarian, in the test with DMS 273 small cell lung, in the test on UO-31 renal and in the test on U251 CNS was greater than 100 µM each time.

For the compound `O=C1C2=C(c3ccccc31)C(c1ccc([N+](=O)[O-])cc1)NC(=S)N2` (stereo not drawn), the total growth inhibition concentration (TGI) in the test on HOP-62 NSCLC, in the test with KM12 colon, in the test with DMS 114 small cell lung, in the test on IGROV1 ovarian, in the test with XF 498 CNS and in the test on M19-MEL melanoma was greater than 100 µM throughout. In addition, the concentration for total growth inhibition (TGI) with SK-MEL-5 melanoma, in the test on DMS 273 small cell lung, in the test with UO-31 renal and with U251 CNS was greater than 100 µM in each case.

Take `Clc1cc2ns[s+]c2cc1Cl`: the concentration for total growth inhibition (TGI) was greater than 81.7 µM with HOP-62 NSCLC; greater than 100 µM with KM12 colon; greater than 100 µM in the test on DMS 114 small cell lung; greater than 100 µM with IGROV1 ovarian; greater than 100 µM in the test on XF 498 CNS; greater than 100 µM in the test on M19-MEL melanoma. In addition, the concentration for total growth inhibition (TGI) with SK-MEL-5 melanoma is greater than 52 µM; with OVCAR-8 ovarian it was greater than 100 µM; in the test on DMS 273 small cell lung it was greater than 100 µM; with UO-31 renal it was greater than 91.7 µM; in the test on U251 CNS, greater than 100 µM.

`CCCCCCCCCCCCCC(=O)OCC1OC(=O)C(O)C1O` (stereo not drawn): the TGI with HOP-62 NSCLC, in the test with KM12 colon, with DMS 114 small cell lung, in the test with IGROV1 ovarian, in the test with XF 498 CNS and with M19-MEL melanoma was greater than 100 µM throughout. The concentration for total growth inhibition (TGI) in the test on SK-MEL-5 melanoma, with OVCAR-8 ovarian, with UO-31 renal and with U251 CNS was greater than 100 µM throughout.

For the compound `CN(C)c1ccc(/C=C(\C#N)C(=O)c2ccccc2)cc1Br`, the TGI with HOP-62 NSCLC was 39.6 µM; in the test on KM12 colon, greater than 100 µM; in the test on DMS 114 small cell lung, greater than 100 µM; in the test on XF 498 CNS, greater than 100 µM; with SK-MEL-5 melanoma it was greater than 100 µM; in the test with OVCAR-8 ovarian, greater than 100 µM. In addition, the TGI in the test on DMS 273 small cell lung, in the test on UO-31 renal and in the test on U251 CNS was greater than 100 µM in each case.

With `COc1ccc(/C=C2\CCC(C)(CN(C)C)C2=O)cc1Br` (stereo not drawn), the concentration for total growth inhibition (TGI) came to 97 µM in the test on HOP-62 NSCLC; 28.3 µM in the test on KM12 colon; 51.9 µM with DMS 114 small cell lung; 40.2 µM in the test with IGROV1 ovarian; 33.1 µM in the test on XF 498 CNS; 32.4 µM in the test on M19-MEL melanoma. The TGI with SK-MEL-5 melanoma stood at 28.3 µM; in the test on OVCAR-8 ovarian, 32.9 µM; with DMS 273 small cell lung, 32.2 µM; in the test on UO-31 renal, 33.3 µM; in the test with U251 CNS it was 45.1 µM.

For the compound `CN1C(=O)CC(CC(=O)C2CCCCC2=O)CC1=O` (stereo not drawn), the TGI in the test with HOP-62 NSCLC, in the test on KM12 colon, in the test with DMS 114 small cell lung, with IGROV1 ovarian, with XF 498 CNS and in the test on M19-MEL melanoma was greater than 100 µM each time. Also, the concentration for total growth inhibition (TGI) in the test on OVCAR-8 ovarian, in the test with DMS 273 small cell lung, with UO-31 renal and with U251 CNS was greater than 100 µM in each case.

Take `CCn1c(C)nc([N+](=O)[O-])c1Sc1ncc[nH]1`: the total growth inhibition concentration (TGI) in the test on HOP-62 NSCLC, in the test with KM12 colon, with DMS 114 small cell lung, in the test with IGROV1 ovarian, in the test on XF 498 CNS and in the test on M19-MEL melanoma was greater than 100 µM each time. Besides, the TGI in the test on SK-MEL-5 melanoma, in the test on OVCAR-8 ovarian, in the test on DMS 273 small cell lung, in the test on UO-31 renal and with U251 CNS was greater than 100 µM each time.

As to `O=C1/C(=C/c2ccc(C(=O)O)cc2)CNC/C1=C\c1ccc(C(=O)O)cc1`, the concentration for total growth inhibition (TGI) in the test on HOP-62 NSCLC, in the test on KM12 colon, with DMS 114 small cell lung, in the test on IGROV1 ovarian, in the test with XF 498 CNS and in the test with M19-MEL melanoma was greater than 100 µM each time. Besides, the TGI in the test with SK-MEL-5 melanoma, in the test with OVCAR-8 ovarian, in the test with DMS 273 small cell lung, in the test on UO-31 renal and with U251 CNS was greater than 100 µM throughout.
